From ChEMBL document CHEMBL5033996, “Design, Synthesis, and Bioactivity Evaluation of Dual-Target Inhibitors of Tubulin and Src Kinase Guided by Crystal Structure” (J Med Chem, 2021)

What was measured:
[1] = Half life in human liver microsomes; assay type: ADME, Microsome
[2] = Antitumor activity against mouse C26 cells xenografted in BALB/c mouse assessed as tumor growth inhibition at 10 mg/kg, po measured every 2 days for 10 days by vernier caliper analysis relative to control; assay type: functional; settings: 240 h, time 10 day, read-out: TGI
[3] = Cmax in Sprague-Dawley rat at 5 mg/kg, po measured up to 24 hrs by LC/MS/MS analysis; assay type: ADME, organism-based; design: route oral, dose 5 mg/kg, time <=24; settings: in vivo
Tubulin = assay: Binding affinity to tubulin (unknown origin) assessed as dissociation constant by tryptophan based binding assay; assay type: protein-complex assay, Homo sapiens
[4] = biological target: Proto-oncogene tyrosine-protein kinase Src (Homo sapiens) (UniProt P12931); assay: Inhibition of Src kinase phosphorylation at Tyr416/419 residue in human SK-OV-3 cells incubated for 24 hrs by Western blot analysis; assay type: cell-based
Sequence of Proto-oncogene tyrosine-protein kinase Src (Homo sapiens) (P12931 2-536 limits assumed): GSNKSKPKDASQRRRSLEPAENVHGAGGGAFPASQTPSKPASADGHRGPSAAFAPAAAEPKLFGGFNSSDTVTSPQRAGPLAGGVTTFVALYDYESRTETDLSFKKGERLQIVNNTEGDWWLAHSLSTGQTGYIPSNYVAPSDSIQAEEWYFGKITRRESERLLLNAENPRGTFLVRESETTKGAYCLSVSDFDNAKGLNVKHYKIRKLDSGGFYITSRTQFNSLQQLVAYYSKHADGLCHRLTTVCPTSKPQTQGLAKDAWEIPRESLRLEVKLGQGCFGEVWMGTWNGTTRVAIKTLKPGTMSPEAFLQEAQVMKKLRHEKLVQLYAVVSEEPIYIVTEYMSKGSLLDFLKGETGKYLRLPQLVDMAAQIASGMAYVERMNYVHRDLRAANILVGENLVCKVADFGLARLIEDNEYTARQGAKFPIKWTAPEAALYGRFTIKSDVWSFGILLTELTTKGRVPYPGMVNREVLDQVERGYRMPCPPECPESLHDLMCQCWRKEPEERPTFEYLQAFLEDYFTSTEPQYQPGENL

SK-OV-3 [5] = assay: Antiproliferative activity against human SK-OV-3 cells assessed as inhibition of cell proliferation measured after 72 hrs by MTT assay; assay type: functional, cell-based; settings: SK-OV-3, 72 h
Ramos = assay: Antiproliferative activity against human Ramos cells assessed as inhibition of cell proliferation measured after 72 hrs by MTT assay; assay type: functional, cell-based
[6] = Tmax in Sprague-Dawley rat at 5 mg/kg, po measured up to 24 hrs by LC/MS/MS analysis; assay type: ADME, organism-based; settings: in vivo
[7] = Oral bioavailability in Sprague-Dawley rat at 5 mg/kg measured up to 24 hrs by LC/MS/MS analysis; assay type: ADME, organism-based; settings: in vivo
[8] = Intrinsic clearance in human liver microsomes; assay type: ADME, Microsome
[9] = Toxicity in BALB/c mouse xenografted with mouse C26 cells assessed as death at 10 mg/kg, po measured every 2 days for 10 days; assay type: organism-based; settings: in vivo, 240 h, time 10 day
[10] = Toxicity in C57 mouse at 40 mg/kg, po administered twice daily; assay type: organism-based; settings: in vivo
[11] = Clearance in Sprague-Dawley rat at 5 mg/kg, po measured up to 24 hrs by LC/MS/MS analysis; assay type: ADME, organism-based; settings: in vivo
K562 = assay: Antiproliferative activity against human K562 cells assessed as inhibition of cell proliferation measured after 72 hrs by MTT assay; assay type: functional, cell-based; settings: K562, 72 h
[12] = Half life in Sprague-Dawley rat at 5 mg/kg, po measured up to 24 hrs by LC/MS/MS analysis; assay type: ADME, organism-based; settings: in vivo
[13] = AUC (0 to t) in Sprague-Dawley rat at 5 mg/kg, po measured up to 24 hrs by LC/MS/MS analysis; assay type: ADME, organism-based; design: route oral, dose 5 mg/kg, time <=24; settings: in vivo
[14] = biological target: Focal adhesion kinase 1 (Homo sapiens) (UniProt Q05397); assay: Inhibition of FAK phosphorylation at […] residue in human SK-OV-3 cells incubated for 24 hrs by Western blot analysis; assay type: cell-based
Sequence of Focal adhesion kinase 1 (Homo sapiens) (Q05397 2-1052 limits assumed): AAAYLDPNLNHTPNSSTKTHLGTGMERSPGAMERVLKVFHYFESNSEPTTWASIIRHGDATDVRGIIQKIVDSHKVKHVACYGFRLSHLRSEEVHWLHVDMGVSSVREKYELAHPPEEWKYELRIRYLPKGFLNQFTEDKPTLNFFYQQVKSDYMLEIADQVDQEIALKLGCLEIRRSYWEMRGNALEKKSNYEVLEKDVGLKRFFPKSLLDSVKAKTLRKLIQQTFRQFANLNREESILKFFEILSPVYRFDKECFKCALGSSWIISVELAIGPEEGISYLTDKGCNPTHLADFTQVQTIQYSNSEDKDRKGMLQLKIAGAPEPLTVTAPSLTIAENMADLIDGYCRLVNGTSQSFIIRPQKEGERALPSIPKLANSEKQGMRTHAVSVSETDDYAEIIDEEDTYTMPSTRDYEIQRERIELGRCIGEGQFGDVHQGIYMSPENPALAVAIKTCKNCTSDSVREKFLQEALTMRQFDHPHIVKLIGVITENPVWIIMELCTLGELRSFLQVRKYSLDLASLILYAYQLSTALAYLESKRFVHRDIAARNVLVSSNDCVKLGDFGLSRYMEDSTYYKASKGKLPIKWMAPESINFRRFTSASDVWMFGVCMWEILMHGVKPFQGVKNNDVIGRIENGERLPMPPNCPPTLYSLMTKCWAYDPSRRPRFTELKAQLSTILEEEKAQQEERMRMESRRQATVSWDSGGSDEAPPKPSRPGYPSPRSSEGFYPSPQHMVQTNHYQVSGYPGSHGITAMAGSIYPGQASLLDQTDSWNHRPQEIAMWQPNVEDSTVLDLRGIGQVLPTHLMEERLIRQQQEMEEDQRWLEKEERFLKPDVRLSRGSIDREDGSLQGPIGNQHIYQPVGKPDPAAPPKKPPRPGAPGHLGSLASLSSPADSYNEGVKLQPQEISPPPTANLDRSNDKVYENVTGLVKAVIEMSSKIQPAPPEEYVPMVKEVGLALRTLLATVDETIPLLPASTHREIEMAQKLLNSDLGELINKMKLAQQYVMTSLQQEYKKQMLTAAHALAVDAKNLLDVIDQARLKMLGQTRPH

[15] = Toxicity in C57 mouse at 10 mg/kg, po administered twice daily; assay type: organism-based; settings: in vivo
[16] = Toxicity in mouse xenografted with human SK-OV-3 cells assessed as effect on body weight at 10 mg/kg, po administered for 30 days; assay type: organism-based; settings: in vivo, 720 h, time 30 day
SK-OV-3 [17] = assay: Induction of cell cycle arrest in human SK-OV-3 cells assessed as accumulation of cells at G2/M phase at 10 nM incubated for 24 hrs by PI staining based flow cytometry analysis (reference value: 28.94%); assay type: functional
SK-OV-3 [18] = assay: Induction of cell cycle arrest in human SK-OV-3 cells assessed as accumulation of cells at G0/G1 phase at 20 nM incubated for 24 hrs by PI staining based flow cytometry analysis (reference value: 49.60 %); assay type: functional
SK-OV-3 [19] = assay: Induction of cell cycle arrest in human SK-OV-3 cells assessed as accumulation of cells at G2/M phase at 20 nM incubated for 24 hrs by PI staining based flow cytometry analysis (reference value: 28.94%); assay type: functional
[20] = Antitumor activity against human SK-OV-3 cells xenografted in nude mouse assessed as tumor growth inhibition at 10 mg/kg, po measured every 3 days for 1 month by vernier caliper analysis relative to control; assay type: functional; settings: SK-OV-3, po, 730 h, time 1 months, read-out: TGI
SK-OV-3 [21] = assay: Induction of cell cycle arrest in human SK-OV-3 cells assessed as accumulation of cells at S phase at 100 nM incubated for 24 hrs by PI staining based flow cytometry analysis (reference value: 21.4 %); assay type: functional
SK-OV-3 [22] = assay: Induction of cell cycle arrest in human SK-OV-3 cells assessed as accumulation of cells at G2/M phase at 100 nM incubated for 24 hrs by PI staining based flow cytometry analysis (reference value: 28.94%); assay type: functional
SK-OV-3 [23] = assay: Induction of cell cycle arrest in human SK-OV-3 cells assessed as accumulation of cells at S phase at 20 nM incubated for 24 hrs by PI staining based flow cytometry analysis (reference value: 21.4 %); assay type: functional
SK-OV-3 [24] = assay: Induction of cell cycle arrest in human SK-OV-3 cells assessed as accumulation of cells at G0/G1 phase at 100 nM incubated for 24 hrs by PI staining based flow cytometry analysis (reference value: 49.60 %); assay type: functional
SK-OV-3 [25] = assay: Induction of cell cycle arrest in human SK-OV-3 cells assessed as accumulation of cells at S phase at 10 nM incubated for 24 hrs by PI staining based flow cytometry analysis (reference value: 21.4 %); assay type: functional
SK-OV-3 [26] = assay: Induction of cell cycle arrest in human SK-OV-3 cells assessed as accumulation of cells at G0/G1 phase at 10 nM incubated for 24 hrs by PI staining based flow cytometry analysis (reference value: 49.60 %); assay type: functional

## O=C(Cc1ccc(-c2ccc(OCCN3CCN(C(=O)C4CC4)CC3)cc2)cn1)NCc1ccccc1
[1]
  half-life: 38.5 min
[2]
  inhibition in vivo at 10 mg/kg: 73%
[3]
  Cmax: 593 ng/mL
Tubulin
  Kd: 290 nM
[4]
  inhibition: Dose-Dependent Effect
SK-OV-3 [5]
  IC50: 1.1 nM
Ramos
  IC50: 1.3 nM
[6]
  Tmax: 49.8 min
[7]
  bioavailability: 52.2%
[8]
  CLH: 36 mL·min/g
[9]
  Activity: Toxic
[10]
  Activity: Non-Toxic
[11]
  CL/F: 55.7 mL/min/kg
K562
  IC50: 2.5 nM
[12]
  half-life: 158 min
[13]
  AUC(0-t) at 24 h: 1620 ng·h/mL
[14]
  inhibition: Dose-Dependent Effect

## O=C(Cc1ccc(-c2ccc(OCCN3CCN(C(=O)[C@@H]4C[C@@H]4F)CC3)cc2)cn1)NCc1ccccc1
[1]
  half-life: 52.1 min
[3]
  Cmax: 742 ng/mL
Tubulin
  Kd: 300 nM
[4]
  inhibition: Dose-Dependent Effect
SK-OV-3 [5]
  IC50: 0.6 nM
Ramos
  IC50: 1.6 nM
[6]
  Tmax: 42 min
[7]
  bioavailability: 79.9%
[8]
  CLH: 26.6 mL·min/g
[15]
  Activity: Toxic
[11]
  CL/F: 25.8 mL/min/kg
K562
  IC50: 1.4 nM
[12]
  half-life: 305 min
[13]
  AUC(0-t) at 24 h: 4180 ng·h/mL
[14]
  inhibition: Dose-Dependent Effect

## O=C(Cc1ccc(-c2ccc(OCCN3CCOCC3)cc2)cn1)NCc1ccccc1 [TIRBANIBULIN]
[16]
  Activity: Non-Toxic
SK-OV-3 [17]
  Activity: 34.01%
[1]
  half-life: 44.1 min
[2]
  inhibition in vivo at 10 mg/kg: 51%
SK-OV-3 [18]
  Activity: 40.07%
[3]
  Cmax: 431 ng/mL
SK-OV-3 [19]
  Activity: 40.35%
Tubulin
  Kd: 1110 nM
SK-OV-3 [5]
  IC50: 6.8 nM
[20]
  inhibition in vivo at 10 mg/kg: 42%
Ramos
  IC50: 15.7 nM
SK-OV-3 [21]
  Activity: 20.2%
SK-OV-3 [22]
  Activity: 64.41%
[6]
  Tmax: 15 min
[7]
  bioavailability: 34.9%
[8]
  CLH: 31.4 mL·min/g
SK-OV-3 [23]
  Activity: 19.58%
SK-OV-3 [24]
  Activity: 15.39%
[11]
  CL/F: 88.5 mL/min/kg
SK-OV-3 [25]
  Activity: 19.33%
K562
  IC50: 18.2 nM
SK-OV-3 [26]
  Activity: 46.66%
[12]
  half-life: 740 min
[13]
  AUC(0-t) at 24 h: 840 ng·h/mL
